Numbers after ± are expanded uncertainties.
Conditions: 283.15 K, Liquid, Vibrating tube method

Measured: mass density

CCCCCC(=O)OCC(COC(=O)CCCCC)(COC(=O)CCCCC)COC(=O)CCCCC [pentaerythritol tetrahexanoate]
1018.6 ± 1.2 kg/m3: 25912 kPa | 26022 kPa | 26039 kPa | 26056 kPa | 26091 kPa | 26127 kPa | 26160 kPa | 26196 kPa | 26213 kPa | 26394 kPa
1019.7 ± 1.2 kg/m3: 27922 kPa | 27996 kPa | 28046 kPa | 28066 kPa | 28083 kPa | 28100 kPa | 28153 kPa
1018.8 ± 1.2 kg/m3: 26143 kPa | 26266 kPa | 26287 kPa | 26320 kPa | 26337 kPa | 26410 kPa | 26465 kPa | 26500 kPa | 26538 kPa | 26593 kPa | 26609 kPa
1019.1 ± 1.2 kg/m3: 26957 kPa | 27010 kPa | 27063 kPa | 27097 kPa | 27134 kPa
1018.4 ± 1.2 kg/m3: 25634 kPa | 25672 kPa | 25696 kPa | 25716 kPa | 25793 kPa | 25815 kPa | 25832 kPa | 25851 kPa | 25890 kPa
1019.8 ± 1.2 kg/m3: 28170 kPa
1018.7 ± 1.2 kg/m3: 25930 kPa | 26075 kPa | 26108 kPa | 26180 kPa | 26233 kPa | 26249 kPa | 26303 kPa | 26357 kPa | 26374 kPa | 26428 kPa | 26483 kPa
1018.5 ± 1.2 kg/m3: 25653 kPa | 25738 kPa | 25757 kPa | 25774 kPa | 25872 kPa | 25948 kPa | 25966 kPa | 25986 kPa | 26002 kPa
1018.3 ± 1.2 kg/m3: 25591 kPa | 25610 kPa
1019.3 ± 1.2 kg/m3: 27204 kPa | 27288 kPa | 27338 kPa | 27354 kPa | 27404 kPa | 27423 kPa | 27439 kPa | 27474 kPa | 27505 kPa | 27540 kPa | 27560 kPa | 27576 kPa | 27627 kPa
1019.5 ± 1.2 kg/m3: 27660 kPa | 27679 kPa | 27712 kPa | 27748 kPa | 27784 kPa | 27817 kPa | 27837 kPa | 27869 kPa | 27976 kPa | 28012 kPa
1019.2 ± 1.2 kg/m3: 26993 kPa | 27042 kPa | 27080 kPa | 27155 kPa | 27172 kPa | 27188 kPa | 27222 kPa | 27238 kPa | 27253 kPa | 27272 kPa | 27306 kPa | 27373 kPa | 27388 kPa
1019.4 ± 1.2 kg/m3: 27322 kPa | 27458 kPa | 27489 kPa | 27524 kPa | 27592 kPa | 27611 kPa | 27644 kPa | 27696 kPa | 27732 kPa | 27800 kPa | 27853 kPa
1019.6 ± 1.2 kg/m3: 27764 kPa | 27889 kPa | 27906 kPa | 27942 kPa | 27959 kPa | 28029 kPa | 28120 kPa | 28136 kPa
1019 ± 1.2 kg/m3: 26661 kPa | 26766 kPa | 26782 kPa | 26798 kPa | 26818 kPa | 26834 kPa | 26870 kPa | 26886 kPa | 26902 kPa | 26974 kPa | 27026 kPa | 27117 kPa
1018.9 ± 1.2 kg/m3: 26448 kPa | 26521 kPa | 26559 kPa | 26576 kPa | 26629 kPa | 26645 kPa | 26680 kPa | 26696 kPa | 26713 kPa | 26730 kPa | 26746 kPa | 26850 kPa
